Experimental data reported in ChEMBL document CHEMBL3430912, “GSK Tres Cantos Anti-Kinetoplastid Screening (TCAKS) Data”.

What was measured:
[1] = target: Sterol 14-alpha demethylase (Trypanosoma cruzi (strain CL Brener), UniProt Q7Z1V1); test: GSK_TCAKS: pIC50 CYP51 from Trypanosoma cruzi.; format: functional
Leishmania donovani [2] = test: (§1) GSK_TCAKS: pIC50 Leishmania donovani Imaging: THP-1 Host Macrophages. Assay plates (384-well) were prepared by adding 250nL of compound to each well. For single shot assay, the final compound concentration was 5 uM. […] Automated image analysis was performed with a script developed on Acapella High Content Imaging and Analysis Software (PerkinElmer). Output: THP-1 cell count were reported for each well.; format: functional, organism-based, Homo sapiens
NIH3T3 = test: GSK_TCAKS: pIC50 NIH 3T3 cell line viability assay using luminiscence. Tissue culture surface treated assay plates (1536-well) were used. […] The 100% cells survival control was determined exposing the host-cells to a 0.5% DMSO concentration, whereas the 100% toxicity control was achieved by seeding the cells in presence of Amphotericin B at 50uM. Plates were incubated for four days at 37C, 5% CO2. The assay readout was developed by addition of 5uL of CellTiter-Glo Reagent following the manufacturer's instructions. Luminiscence was measured using a ViewLux.; format: functional, cell-based; conditions: Mus musculus, NIH3T3, 96 h
Trypanosoma cruzi [3] = test: GSK_TCAKS: pIC50 Trypanosoma cruzi Imaging: Amastigotes/Cell. […] Cells were then washed once with PBS before infection. T. cruzi trypomastigotes, collected at days 5 to 8 after infection from LLC-MK2 parasite infected cultures, were allowed to swim out for 4h at 37C from a centrifuged pellet (2,500 rpm/10 min/room temperature). Trypomastigotes were then collected and counted in a CASY Cell Counter. Trypomastigotes, in supplemented DMEM, were added to H9c2 cultures in a multiplicity of infection of 1 and incubated for 18 h. Cells were washed once with PBS before incubation of the infected H9c2 monolayer with trypsin (Life-Technologies) to detach cells from the flask. Cells were counted in a CASY Cell Counter using a 150 um capillary and their density set at 5 * 10^4 cells per mL in supplemented assay DMEM. Infected H9c2 were dispensed into 384-well poly-lysine coated assay plates at 50uL per well using a Multidrop Combi dispenser. After seeding them, the plates were incubated at 37C, 5% CO2 for 72h. Cultures were then fixed and stained by addition of 50 uL of a solution containing 8% formaldehyde and 4 uM DRAQ5 DNA dye (BioStatus, UK) per well. […] Five images were collected per well for reliable statistical analysis. Automated image analysis was performed with a script developed on Acapella High Content Imaging and Analysis Software (PerkinElmer). Output: number of amastigotes per cell as infection level measurement.; format: functional, organism-based, Rattus norvegicus; conditions: H9c2, 4 h
Leishmania donovani [4] = test: as §1, with “Infected” for “THP-1 Host”, “Percent of infected macrophage cells” for “THP-1 cell count”; format: functional, organism-based, Homo sapiens; conditions: THP-1
[5] = GSK_TCAKS: pIC50 HepG2 human cell line viability assay using luminiscence. […] Seeding density was checked to ensure that new mono-layers were not more than 50% confluent at the time of harvesting. Cell suspension was added to 500 mL of the same medium at a final density of 1.2 * 10^5 cells/mL. This cell suspension was dispensed (25 uL, 3000 cells per well) into 384-well clear-bottom plates using a Multidrop Combi dispenser. Prior to addition of the cell suspension, the screening compounds (250 nL) were pre-dispensed into the plates with an Echo liquid handler. Plates were incubated for 48 h at 37C, 5% CO2. After incubation, plates equilibrated at room temperature for 30 min before proceeding to develop the luminescent signal. The signal developer, CellTiter-Glo Reagent, was allowed to equilibrate at room temperature for 30 min and added to the plates (25uL per well) using a Multidrop Combi dispenser. Plates were left for 10 min at room temperature for stabilization and then read using a ViewLux.; format: toxicity, cell-based
Trypanosoma cruzi [6] = test: GSK_TCAKS: pIC50 Trypanosoma cruzi viability assay using beta-GAL activity. This assay was run at single shot at 5uM compound concentration per well. The biological reagents consisted of NIH-3T3 host cells and trypomastigotes parasitic cells; both cell types were set to a 3.3 * 10^5 cells/mL dilution in assay DMEM by means of a CASY cell counter device using a 60um capillary. 6 uL of the mixture were dispensed per well (about 1 * 10^3 host-cells and 1 * 10^3 parasites) with a Multidrop Combi dispenser. […] In all wells, the percentage of DMSO never exceeded 0.5%. Plates incubated for four days at 37C, 5% CO2. The substrate used for the assay fluorescence intensity (FLINT) readout was resorufin-beta-D-galactopiranoside (Sigma-Aldrich) at 5uM per well. It was diluted in PBS supplemented with the soft detergent Igepal (Fluka).; format: functional, organism-based, Mus musculus; conditions: Tulahuen, NIH3T3
Leishmania donovani [7] = test: GSK_TCAKS: pIC50 Leishmania donovani viability assay using fluorescence intensity. Assay plates (1536-well) were prepared by adding 30nL per well of compound. For single shot assay, the final compound concentration was 5uM. […] Briefly, eGFP LdBOB axenic amastigotes were harvested, fixed and counted in a CASY cell counter (Roche-Applied Science). A final concentration of 1.5 * 10^5 cells per well were prepared in amastigote media containing 500 U/mL penicillin/streptomycin (Invitrogen) and 6uL was dispensed to each experimental well using a Multidrop Combi dispenser (Thermo Scientific). 6uL of assay media was dispensed to control columns used as reference for 100% compound response. Following incubation for 72 h at 37C, 5% CO2, 2 uL of resazurin was added to each well at a final concentration of 0.5 mM in phosphate buffered saline (PBS) with IGEPAL (Sigma-Aldrich), 0.05% (v/v).; format: functional, organism-based
Leishmania donovani [8] = test: as §1, with “Amastigotes/Macrophages.” for “THP-1 Host Macrophages.”, “Average number of amastigotes per macrophage” for “THP-1”, “cell” for “cell count”; format: functional, organism-based, Homo sapiens; conditions: THP-1
[9] = test system: Trypanosoma brucei brucei; test: GSK_TCAKS: pIC50 Trypanosoma brucei viability assay using fluorescence intensity. Assay plates (1536-well) were prepared by dispensing 25nL of compound solution per well using an Echo acoustic dispenser (Labcyte).; format: functional, organism-based; conditions: Lister 427, 2 h
Trypanosoma cruzi [10] = test: (§2) GSK_TCAKS: pIC50 Trypanosoma cruzi Imaging: Infected Cells. […] Cells were then washed once with PBS before infection. T. cruzi trypomastigotes, collected at days 5 to 8 after infection from LLC-MK2 parasite infected cultures, were allowed to swim out for 4h at 37C from a centrifuged pellet (2,500 rpm/10 min/room temperature). Trypomastigotes were then collected and counted in a CASY Cell Counter. Trypomastigotes, in supplemented DMEM, were added to H9c2 cultures in a multiplicity of infection of 1 and incubated for 18 h. Cells were washed once with PBS before incubation of the infected H9c2 monolayer with trypsin (Life-Technologies) to detach cells from the flask. Cells were counted in a CASY Cell Counter using a 150 um capillary and their density set at 5 * 10^4 cells per mL in supplemented assay DMEM. Infected H9c2 were dispensed into 384-well poly-lysine coated assay plates at 50uL per well using a Multidrop Combi dispenser. After seeding them, the plates were incubated at 37C, 5% CO2 for 72h. Cultures were then fixed and stained by addition of 50 uL of a solution containing 8% formaldehyde and 4 uM DRAQ5 DNA dye (BioStatus, UK) per well. […] Five images were collected per well for reliable statistical analysis. Automated image analysis was performed with a script developed on Acapella High Content Imaging and Analysis Software (PerkinElmer). Output: percentage of infected cells per well as a second infection marker.; format: functional, organism-based, Rattus norvegicus; conditions: H9c2, 4 h
[11] = test system: Trypanosoma brucei brucei; test: GSK_TCAKS: pIC50 Trypanosoma brucei viability assay using luminiscence. Assay plates (1536-well) were prepared. T. brucei cultures were harvested and counted in a CASY cell counter. A parasite suspension was prepared at a final concentration of 5 * 10^4 cells/mL in complete HMI9 medium and 6uL was dispensed to all wells containing compounds using a Multidrop Combi dispenser. 6uL of HMI9 media with 0.4% DMSO were dispensed to control columns. Plates were incubated for 24 h at 37C, 5% CO2 then tempered for 10 min at room temperature. ATP content was quantified by adding 4 uL of CellTiter-Glo Reagent (Promega) according to the manufacturer's instructions. Luminescence was measured using a ViewLux.; format: functional, organism-based; conditions: Lister 427, CASY
Trypanosoma cruzi [12] = test: as §2, with “H2C9” for “Trypanosoma cruzi”, “H9c2 Host Cardiomyocytes.” for “Infected Cells.”, “Number” for “percentage”, “H9c2 Host Cardiomyocytes nuclei to determine drug-related cytotoxicity.” for “infected cells per well as a second infection marker.”; format: functional, organism-based, Rattus norvegicus; conditions: H9c2, 4 h

Sterol 14-alpha demethylase, sequence (Q7Z1V1 whole entry): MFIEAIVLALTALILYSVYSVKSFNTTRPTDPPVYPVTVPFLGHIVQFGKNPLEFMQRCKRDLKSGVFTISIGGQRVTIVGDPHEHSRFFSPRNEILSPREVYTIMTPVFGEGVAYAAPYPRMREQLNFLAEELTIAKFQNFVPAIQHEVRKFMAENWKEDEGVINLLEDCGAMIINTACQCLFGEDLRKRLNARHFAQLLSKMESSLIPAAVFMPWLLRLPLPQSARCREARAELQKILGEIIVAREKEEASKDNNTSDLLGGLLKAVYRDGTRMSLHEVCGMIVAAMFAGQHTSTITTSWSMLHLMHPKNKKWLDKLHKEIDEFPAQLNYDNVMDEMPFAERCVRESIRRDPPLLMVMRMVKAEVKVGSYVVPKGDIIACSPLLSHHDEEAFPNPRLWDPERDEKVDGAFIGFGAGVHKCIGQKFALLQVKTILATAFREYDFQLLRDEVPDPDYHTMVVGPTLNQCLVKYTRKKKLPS

SMILES | IC50 [1] | IC50 (Leishmania donovani [2]) | IC50 (NIH3T3) | IC50 (Trypanosoma cruzi [3]) | IC50 (Leishmania donovani [4]) | IC50 at 48 h [5] | IC50 (Trypanosoma cruzi [6]) | IC50 (Leishmania donovani [7]) | IC50 (Leishmania donovani [8]) | IC50 [9] | IC50 (Trypanosoma cruzi [10]) | IC50 [11] | IC50 (Trypanosoma cruzi [12])
O=S(=O)(NCC(c1cccnc1)N1CCN(c2ccccc2F)CC1)c1ccc(F)cc1 (stereo not given) | 0.0794 µM | > 50.1 µM | > 50.1 µM | 0.2 µM | > 50.1 µM | > 100 µM | 0.501 µM | 3.98 µM | 3.98 µM | 25.1 µM | 0.2 µM | > 39.8 µM | > 50.1 µM
Cc1nc(N2CCC(C(=O)N3CCC(O)(c4cccnc4)CC3)CC2)nc2ccc(C(C)C)cc12 | 0.126 µM | 25.1 µM | 25.1 µM | 0.398 µM | 50.1 µM | 79.4 µM | 1.58 µM | > 50.1 µM | 10 µM | 20 µM | 0.316 µM | 31.6 µM | 39.8 µM
C=CCOCC1Cn2nc([N+](=O)[O-])nc2O1 (stereo not given) | > 100 µM | > 50.1 µM | > 50.1 µM | 0.631 µM | > 50.1 µM | > 100 µM | 0.501 µM | > 50.1 µM | > 50.1 µM | > 39.8 µM | 1.26 µM | > 39.8 µM | > 50.1 µM
CCC(=O)Nc1ccc(C(=O)Nc2ccccc2-c2ccccc2)cc1 | > 100 µM | 15.8 µM | > 50.1 µM | 0.251 µM | 20 µM | > 100 µM | 0.501 µM | 10 µM | 25.1 µM | 20 µM | 0.501 µM | 25.1 µM | > 50.1 µM
O=S(=O)(c1ccccc1C(F)(F)F)N1CCN(Cc2ccc(-n3ccnc3)cc2)CC1 | 0.1 µM | 15.8 µM | > 50.1 µM | 0.2 µM | > 50.1 µM | > 100 µM | 0.251 µM | 6.31 µM | 25.1 µM | > 39.8 µM | 0.251 µM | > 39.8 µM | > 50.1 µM
O=C(NCc1ccncc1)c1ccccc1N1CCCN(C(=O)Cc2ccc(F)c(F)c2)CC1 | 0.0794 µM | > 50.1 µM | 15.8 µM | 0.0794 µM | > 50.1 µM | > 100 µM | 0.126 µM | 2.51 µM | > 50.1 µM | 6.31 µM | 0.0794 µM | 20 µM | > 50.1 µM
CN(Cc1ccccc1)Cc1nnnn1C1CCN(Cc2ccc(-n3ccnc3)cc2)CC1 | 0.0501 µM | 31.6 µM | 3.98 µM | 0.251 µM | > 50.1 µM | > 100 µM | 0.398 µM | > 50.1 µM | > 50.1 µM | > 39.8 µM | 0.316 µM | > 39.8 µM | > 50.1 µM
CN1CCN(c2nc(-c3ccc(Cl)cc3)c3c(N)n(C)nc3n2)CC1 | > 100 µM | 39.8 µM | 25.1 µM | 0.794 µM | 39.8 µM | 79.4 µM | 2 µM | > 50.1 µM | 31.6 µM | 12.6 µM | 1 µM | 31.6 µM | 25.1 µM
Cc1nn(C2CCS(=O)(=O)C2)c(C)c1CN(C)C(=O)C=Cc1sc2ccccc2c1Cl (stereo not given) | 0.0316 µM | 20 µM | > 50.1 µM | 0.316 µM | 39.8 µM | > 100 µM | 0.631 µM | 12.6 µM | 12.6 µM | 10 µM | 0.501 µM | 25.1 µM | > 50.1 µM
Cc1n[nH]c2c1C(c1ccc(OCc3ccccc3F)cc1)SCC(=O)N2 (stereo not given) | > 100 µM | > 50.1 µM | > 50.1 µM | 0.794 µM | > 50.1 µM | > 100 µM | 2 µM | 39.8 µM | > 50.1 µM | 25.1 µM | 3.16 µM | > 39.8 µM | > 50.1 µM
Cc1ccccc1OCC(=O)N1CCCN(c2cccnn2)CC1 | 0.0794 µM | > 50.1 µM | 50.1 µM | 0.501 µM | > 50.1 µM | > 100 µM | 0.316 µM | 12.6 µM | > 50.1 µM | > 39.8 µM | 0.631 µM | > 39.8 µM | > 50.1 µM
CS(=O)(=O)c1cccc(CNC(=O)c2cncc(N3CCN(c4ccc(F)cc4)CC3)c2)c1 | 12.6 µM | > 50.1 µM | 25.1 µM | 0.251 µM | > 50.1 µM | > 100 µM | 0.631 µM | > 50.1 µM | > 50.1 µM | 31.6 µM | 0.398 µM | > 39.8 µM | > 50.1 µM
COc1ccc(NS(=O)(=O)c2cc(-c3cc(C)n[nH]3)ccc2C)cc1OC | 39.8 µM | > 50.1 µM | > 50.1 µM | 1.26 µM | 10 µM | > 100 µM | 1.41 µM | 1 µM | 7.94 µM | 0.316 µM | 2 µM | 0.631 µM | > 50.1 µM
Cc1ccc(NC(=O)C(C)n2nc([N+](=O)[O-])c(Br)c2C)cc1Cl (stereo not given) | > 100 µM | > 50.1 µM | 12.6 µM | 3.16 µM | > 50.1 µM | 79.4 µM | 2.51 µM | > 50.1 µM | > 50.1 µM | 15.8 µM | 6.31 µM | > 39.8 µM | > 50.1 µM
Cc1cc(C)c(C#N)c(SCC(=O)c2ccc3c(c2)OCO3)n1 | > 100 µM | > 50.1 µM | > 50.1 µM | 0.398 µM | > 50.1 µM | > 100 µM | 2 µM | > 50.1 µM | > 50.1 µM | 20 µM | 0.794 µM | 15.8 µM | > 50.1 µM
